Experimental data published in PubChem BioAssay (NCI).
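Briefly, cells in 96-well plates were exposed to five compound concentrations for 48 h, and endpoints were estimated by linear interpolation. GI50 is the concentration that inhibits growth by half. TGI marks complete inhibition of growth.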

Columns and labels:
Test in all cases: inhibition of tumour cell growth, NCI panel, 48 h
SK-MEL-28 melanoma = system: SK-MEL-28 melanoma
HCT-15 colon = system: HCT-15 colon
786-0 renal = system: 786-0 renal
TK-10 renal = system: TK-10 renal
HOP-92 NSCLC = system: HOP-92 NSCLC
HS 578T breast = system: HS 578T breast
U251 CNS = system: U251 CNS
K-562 leukemia = system: K-562 leukemia
SW-620 colon = system: SW-620 colon
MDA-MB-231 breast = system: MDA-MB-231 breast
COLO 205 colon = system: COLO 205 colon
T-47D breast = system: T-47D breast
CAKI-1 renal = system: CAKI-1 renal
NCI/ADR-RES ovarian = system: NCI/ADR-RES ovarian
NCI-H522 lung = system: NCI-H522 lung
HT29 colon = system: HT29 colon
CCRF-CEM leukemia = system: CCRF-CEM leukemia
HOP-62 NSCLC = system: HOP-62 NSCLC
NCI-H460 lung = system: NCI-H460 lung
SK-OV-3 ovarian = system: SK-OV-3 ovarian
A549 NSCLC = system: A549 NSCLC
MDA-MB-435 = system: MDA-MB-435
MALME-3M melanoma = system: MALME-3M melanoma
BT-549 breast = system: BT-549 breast
OVCAR-5 ovarian = system: OVCAR-5 ovarian
RPMI-8226 leukemia = system: RPMI-8226 leukemia
EKVX NSCLC = system: EKVX NSCLC
MOLT-4 leukemia = system: MOLT-4 leukemia
UO-31 renal = system: UO-31 renal
DU-145 prostate = system: DU-145 prostate
SN12C renal = system: SN12C renal
NCI-H23 lung = system: NCI-H23 lung
RXF 393 renal = system: RXF 393 renal
SF-539 CNS = system: SF-539 CNS
KM12 colon = system: KM12 colon
M14 melanoma = system: M14 melanoma
SK-MEL-5 melanoma = system: SK-MEL-5 melanoma
PC-3 prostate = system: PC-3 prostate
HCC-2998 colon = system: HCC-2998 colon
HCT-116 colon = system: HCT-116 colon
OVCAR-8 ovarian = system: OVCAR-8 ovarian
MCF7 breast = system: MCF7 breast
UACC-62 melanoma = system: UACC-62 melanoma
OVCAR-3 ovarian = system: OVCAR-3 ovarian
UACC-257 melanoma = system: UACC-257 melanoma
SNB-75 CNS = system: SNB-75 CNS
ACHN renal = system: ACHN renal
SR leukemia = system: SR leukemia
A498 renal = system: A498 renal
SNB-19 CNS = system: SNB-19 CNS
SF-268 CNS = system: SF-268 CNS
SK-MEL-2 melanoma = system: SK-MEL-2 melanoma

Compound: O=C(/C=C/c1cccs1)c1ccc(Cl)cc1Cl
- GI50 (SK-MEL-28 melanoma): 22.4 µM
- TGI (SK-MEL-28 melanoma): 52.7 µM
- GI50 (HCT-15 colon): 14.7 µM
- TGI (HCT-15 colon): 32.4 µM
- GI50 (786-0 renal): 16.6 µM
- TGI (786-0 renal): 33.9 µM
- GI50 (TK-10 renal): 25.3 µM
- TGI (TK-10 renal): 61.1 µM
- GI50 (HOP-92 NSCLC): 23.8 µM
- TGI (HOP-92 NSCLC): 61.4 µM
- GI50 (HS 578T breast): 24.5 µM
- TGI (HS 578T breast): 55.9 µM
- GI50 (U251 CNS): 14.6 µM
- TGI (U251 CNS): 28.1 µM
- GI50 (K-562 leukemia): 19.1 µM
- TGI (K-562 leukemia): 56.4 µM
- GI50 (SW-620 colon): 18.8 µM
- TGI (SW-620 colon): 37.1 µM
- GI50 (MDA-MB-231 breast): 14.3 µM
- TGI (MDA-MB-231 breast): 28.1 µM
- GI50 (COLO 205 colon): 27.1 µM
- TGI (COLO 205 colon): 88.9 µM
- GI50 (T-47D breast): 28.6 µM
- TGI (T-47D breast): > 100 µM
- GI50 (CAKI-1 renal): 20.9 µM
- TGI (CAKI-1 renal): 43.1 µM
- GI50 (NCI/ADR-RES ovarian): 31.4 µM
- TGI (NCI/ADR-RES ovarian): > 100 µM
- GI50 (NCI-H522 lung): 17.4 µM
- TGI (NCI-H522 lung): 36.5 µM
- GI50 (HT29 colon): 28.1 µM
- TGI (HT29 colon): > 100 µM
- GI50 (CCRF-CEM leukemia): 32.1 µM
- TGI (CCRF-CEM leukemia): 97.1 µM
- GI50 (HOP-62 NSCLC): 19.4 µM
- TGI (HOP-62 NSCLC): 37.7 µM
- GI50 (NCI-H460 lung): 18 µM
- TGI (NCI-H460 lung): 37.1 µM
- GI50 (SK-OV-3 ovarian): 25.5 µM
- TGI (SK-OV-3 ovarian): 55.3 µM
- GI50 (A549 NSCLC): 17.3 µM
- TGI (A549 NSCLC): 36.4 µM
- GI50 (MDA-MB-435): 17.7 µM
- TGI (MDA-MB-435): 35.2 µM
- GI50 (MALME-3M melanoma): 1.04 µM
- TGI (MALME-3M melanoma): 19.8 µM
- GI50 (BT-549 breast): 19.3 µM
- TGI (BT-549 breast): 39.9 µM
- GI50 (OVCAR-5 ovarian): 20.1 µM
- TGI (OVCAR-5 ovarian): 39 µM
- GI50 (RPMI-8226 leukemia): 27.7 µM
- TGI (RPMI-8226 leukemia): > 100 µM
- GI50 (EKVX NSCLC): 18.6 µM
- TGI (EKVX NSCLC): 36.7 µM
- GI50 (MOLT-4 leukemia): 18.8 µM
- TGI (MOLT-4 leukemia): 51.9 µM
- GI50 (UO-31 renal): 18.5 µM
- TGI (UO-31 renal): 34.2 µM
- GI50 (DU-145 prostate): 20 µM
- TGI (DU-145 prostate): 43.7 µM
- GI50 (SN12C renal): 16.4 µM
- TGI (SN12C renal): 31.2 µM
- GI50 (NCI-H23 lung): 17.1 µM
- TGI (NCI-H23 lung): 33.6 µM
- GI50 (RXF 393 renal): 19.4 µM
- TGI (RXF 393 renal): 38.4 µM
- GI50 (SF-539 CNS): 19.8 µM
- TGI (SF-539 CNS): 38.6 µM
- GI50 (KM12 colon): 19.1 µM
- TGI (KM12 colon): 40 µM
- GI50 (M14 melanoma): 19.8 µM
- TGI (M14 melanoma): 40.5 µM
- GI50 (SK-MEL-5 melanoma): 15 µM
- TGI (SK-MEL-5 melanoma): 28.8 µM
- GI50 (PC-3 prostate): 33.2 µM
- TGI (PC-3 prostate): > 100 µM
- GI50 (HCC-2998 colon): 19.2 µM
- TGI (HCC-2998 colon): 34.8 µM
- GI50 (HCT-116 colon): 14 µM
- TGI (HCT-116 colon): 30.8 µM
- GI50 (OVCAR-8 ovarian): 19.4 µM
- TGI (OVCAR-8 ovarian): 48.3 µM
- GI50 (MCF7 breast): 18.4 µM
- TGI (MCF7 breast): 51.6 µM
- GI50 (UACC-62 melanoma): 13.4 µM
- TGI (UACC-62 melanoma): 26.4 µM
- GI50 (OVCAR-3 ovarian): 19 µM
- TGI (OVCAR-3 ovarian): 36.4 µM
- GI50 (UACC-257 melanoma): 16.6 µM
- TGI (UACC-257 melanoma): 31.9 µM
- GI50 (SNB-75 CNS): 18.1 µM
- TGI (SNB-75 CNS): 35.9 µM
- GI50 (ACHN renal): 17.4 µM
- TGI (ACHN renal): 31.3 µM
- GI50 (SR leukemia): 15 µM
- TGI (SR leukemia): 77.3 µM
- GI50 (A498 renal): 17.9 µM
- TGI (A498 renal): 32.7 µM
- GI50 (SNB-19 CNS): 24 µM
- TGI (SNB-19 CNS): 64.2 µM
- GI50 (SF-268 CNS): 19.1 µM
- TGI (SF-268 CNS): 39 µM
- GI50 (SK-MEL-2 melanoma): 17.5 µM
- TGI (SK-MEL-2 melanoma): 35 µM
